These results are taken from patent US7262212B2, “2,3-dihydro-6-nitroimidazo[2,1-b]oxazoles” (Otsuka Pharmaceutical Co., Ltd., priority 2002, dated 2007).

≈ marks a conversion by molar mass, not a printed value.

One data set deals with M. avium.
Test: not given
Particulars: used at 250 μg/ml or less; cited from earlier work.
As for `CCC1Cn2cc([N+](=O)[O-])nc2O1` (centres unmarked) [CGI-17341], the activity entry was “does not have the activity”.

The test system of another data set is M. intracellulare.
Test: not given
As to conditions: used at 250 μg/ml or less; cited from earlier work.
On to `CCC1Cn2cc([N+](=O)[O-])nc2O1` (centres unmarked) [CGI-17341], for which the activity entry is recorded as “does not have the activity”.

The subject of a further data set is Mycobacterium tuberculosis (M. tuberculosis H37Rv). Nature of the data set: Antimicrobial assay (agar dilution method), minimal inhibitory concentration. The format is cell-based. Particulars: 336 h, 7H11 agar medium, approximately 10^6 CFU/ml, 5 μl inoculated, 37° C. for 14 days.
For orientation: MIC means the least concentration at which growth counts as inhibited. Higher therefore signals a less susceptible organism. Consider `C[C@]1(CN2CCN(c3ccc(OC(F)(F)F)cc3)CC2)Cn2cc([N+](=O)[O-])nc2O1` [Example 397, (S)-2-[4-(4-trifluoromethoxyphenyl)-piperazin-1-ylmethyl]-2-methyl-6-nitro-2,3-dihydroimidazo[2,1-b]oxazole], for which the minimal inhibitory concentration (MIC) is 0.024 µg/mL (≈ 0.0562 µM).

Tested on in the next data set: not given
Test: not given
Conditions: not given
Usually melting point stands for the temperature of the solid-liquid transition. `CCOC(=O)C1CCN(c2ccc(OC[C@@]3(C)Cn4cc([N+](=O)[O-])nc4O3)cc2)CC1` registered a melting point of 208.2 to 211.5 °C. With `O=C(Nc1ccc(N2CCOCC2)c(F)c1)N1CCC2(CC1)Cn1cc([N+](=O)[O-])nc1O2`, the melting point was 240 to 245 °C (dec.). Still for that read-out and setting: the figure for `C[C@]1(CN2CCN(C3CCN(c4ccc(OC(F)(F)F)cc4)CC3)CC2)Cn2cc([N+](=O)[O-])nc2O1` is 180 to 181.5 °C; for `C[C@]1(CN2CCC(N3CCN(C(=O)c4ccc(OC(F)(F)F)cc4)CC3)CC2)Cn2cc([N+](=O)[O-])nc2O1` it is 137 to 138 °C.

On to `C[C@]1(COc2ccc(N3CCN(Cc4ccc(C(F)(F)F)cc4)CC3)cc2)Cn2cc([N+](=O)[O-])nc2O1`, for which the melting point was 205.5 to 207 °C. Still for that read-out and setting: the figure for `C[C@]1(COc2ccc(N3CCN(Cc4ccc(OC(F)(F)F)cc4)CC3)cc2)Cn2cc([N+](=O)[O-])nc2O1` is 213.5 to 217 °C. Turning to `CC1(CNC(=O)OCc2ccc(OC(F)(F)F)cc2)Cn2cc([N+](=O)[O-])nc2O1` (centres unmarked), the melting point was in the range of 182.3 to 184.4 °C. The same measure, in the same setting: the figure for `CC1(CN2CCC(C(=O)c3ccc(C(F)(F)F)cc3)CC2)Cn2cc([N+](=O)[O-])nc2O1` (centres unmarked) is 172 to 174 °C; for `CC1(N2CCC(C(=O)c3ccc(OC(F)(F)F)cc3)CC2)Cn2cc([N+](=O)[O-])nc2O1` (centres unmarked) it is 165 to 167 °C; for `CC(C)(C)OC(=O)N(CCc1ccc(C(F)(F)F)cc1)C1CCN(C[C@@]2(C)Cn3cc([N+](=O)[O-])nc3O2)CC1` it is 206.8 to 208.6 °C. Consider `C[C@]1(CN2CCC(NC(=O)OC3CCN(c4ccc(C(F)(F)F)cc4)CC3)CC2)Cn2cc([N+](=O)[O-])nc2O1`, for which the melting point lay in the range of 134.4 to 136.9 °C.

`C[C@]1(CN2CCC(NCCc3ccc(C(F)(F)F)cc3)CC2)Cn2cc([N+](=O)[O-])nc2O1`: the melting point was in the range of 80.7 to 84.2 °C.

`CC1(CN2CCN(C(=O)OCc3ccccc3)CC2)Cn2cc([N+](=O)[O-])nc2O1` (centres unmarked) showed a melting point of 130.5 to 132.1 °C. On the same count and under the same terms, to `C[C@]1(CN2CCN(c3ccc(Cl)cc3)CC2)Cn2cc([N+](=O)[O-])nc2O1` belongs 218 to 219.6 °C; to `CN1C(=O)CCc2cc(COC(=O)N3CCN(C[C@@]4(C)Cn5cc([N+](=O)[O-])nc5O4)CC3)ccc21`, 189 to 190 °C; to `CC1(COc2nc3ccccc3o2)Cn2cc([N+](=O)[O-])nc2O1` (centres unmarked), 200 to 203 °C. The same measure, in the same setting: the figure for `C[C@]1(CN2CCN(C(=O)OCC=Cc3cccc(C(F)(F)F)c3)CC2)Cn2cc([N+](=O)[O-])nc2O1.O=C(O)/C=C\C(=O)O` is 136 to 138 °C; for `CC1(CSc2nc3ccccc3o2)Cn2cc([N+](=O)[O-])nc2O1` (centres unmarked) it is 163 to 166 °C.

For the compound `C[C@]1(CN2CCN(C(=O)N3CCC(c4ccc(C(F)(F)F)cc4)CC3)CC2)Cn2cc([N+](=O)[O-])nc2O1`, the melting point fell in the range of 179.1 to 181.9 °C.

In turn, `C[C@]1(CN2CCN(C(=O)N3C=CC(c4ccc(Cl)cc4)=CC3)CC2)Cn2cc([N+](=O)[O-])nc2O1` had a melting point of 156 to 159 °C. The compound `C[C@]1(CN2CCN(Nc3ccc(C(F)(F)F)cc3)CC2)Cn2cc([N+](=O)[O-])nc2O1` came in with a melting point of 192.1 to 195.3 °C. Still for that read-out and setting: the figure for `CC1(CSc2nnnn2-c2ccccc2)Cn2cc([N+](=O)[O-])nc2O1` (centres unmarked) is 140 to 147 °C; for `COc1ccc(CN2CCN(CC3(C)Cn4cc([N+](=O)[O-])nc4O3)C2=O)cc1` (centres unmarked) it is 158.6 to 160.5 °C; for `O=C(N1CCN(Cc2ccc(C(F)(F)F)cc2)CC1)N1CCC2(CC1)Cn1cc([N+](=O)[O-])nc1O2` it is 226 to 230 °C (dec.). Still for that read-out and setting: the figure for `O=C(NCc1ccc(C(F)(F)F)cc1)N1CCC2(CC1)Cn1cc([N+](=O)[O-])nc1O2` is 215 to 217 °C; for `C[C@]1(CN2CCN(N=Cc3ccc(C(F)(F)F)cc3)CC2)Cn2cc([N+](=O)[O-])nc2O1` [Example 504] it is 201 to 202.3 °C (dec.); for `C[C@]1(CN2CCN(N=Cc3ccc(C(F)(F)F)cc3)CC2)Cn2cc([N+](=O)[O-])nc2O1` [Example 505] it is 188.4 to 191.2 °C.

The test system of another data set is Mycobacterium tuberculosis (H37Rv strain).
Test: not given
Particulars: cited from earlier work.
Take `CCC1Cn2cc([N+](=O)[O-])nc2O1` (centres unmarked) [CGI-17341]: the bactericidal action result is on record as “has a bactericidal action”.

Another data set concerns M. fortuitum.
Test: not given
Particulars: used at 250 μg/ml or less; cited from earlier work.
As to `CCC1Cn2cc([N+](=O)[O-])nc2O1` (centres unmarked) [CGI-17341], the activity entry was “does not have the activity”.
